Test results from patent US20140024683A1, “CHLORIDE CHANNEL AND CHLORIDE TRANSPORTER MODULATORS FOR THERAPY IN SMOOTH MUSCLE DISEASES” (priority 2011, published 2014).
Several values for one entry are separate records, joined by “and”; a condition that tells them apart may be missing. Identical values can stand only once. Like-named read-outs stand apart in the source and are kept apart here. Each block holds one compound with its values, some of them ahead of it.

Key:
[1] = tested on: human airway smooth muscle cells; format: cell-based
Method: This buffer was exchanged at 100 μl/well just before starting the measurement of fluorescence. […] In separate experiments the effect of extracellular chloride concentrations on SOCE was measured by the predepletion of extracellular calcium in low or high chloride buffer (55 mM versus 110 mM NaCl, osmotically balanced with Na gluconate) in the presence of thapsigargin to deplete intracellular calcium stores. Calcium induced fluorescence changes were measured with the reintroduction of 2 mM extracellular CaCl2.

[2] = tested on: human airway smooth muscle cells; test: Whole cell current clamp recording of membrane potential; format: cell-based
Method: Induced electrophysiological changes in membrane potential and current were measured using traditional whole cell patch clamp methods. Immortalized human airway smooth muscle cells were grown to confluence on collagen-treated T25 flasks. Collagenase type IV in SmBM2 medium (Lonza, Walkersville, Md.) was used to release cells adherent to the collagen matrix in the flask. Medium with cells in suspension was then harvested in a 10-ml conical tube and centrifuged at 300×g. Supernatant was removed, and the pellet was resuspended in SmBM2 medium and transferred into collagen-treated glass bottom 1-cm Petri dishes at about 10% confluence. Each dish was then incubated at 37° C. and 5% CO2 for 1-4 hours for reattachment of cells to glass-bottom Petri dishes.
Glass-bottom dishes served as a disposable recording chamber. ALA VM-8, an 8-chamber pressure-driven drug application system, was used in a still bath of extracellular salt solution. Whole-cell intracellular voltage recordings under current clamp conditions were performed with a 2-kHz Bessel filter, recording at 10 kHz using an Axopatch 200b amplifier (Axon Instruments, Foster City, Calif., USA). Electrodes were pulled using a P-97 micropipette puller from 1.5-mm OD borosilicate capillary glass (Sutter Instruments, Novato, Calif., USA). Glass electrode resistances ranged from 5 to 10 MO with intracellular solution. Whole-cell intracellular current recordings under voltage-clamp conditions were performed with a 2-kHz Bessel filter, recording at 10 kHz using an Axopatch 200b amplifier. For current measurements (FIG. 11) intracellular solutions consisted of (in mM) 140 TEA-Cl, 5 MgATP, 5 EGTA, 1 MgCl2, 10 HEPES, and 5 CaCl2 (pH 7.2). Extracellular solution consisted of (in mM) 134 NaCl, 1.4 KCl, 10 HEPES, 1 MgCl2, 1.8 CaCl2, and 10 glucose (pH 7.4). This induced the classic spontaneously transient inward currents (STICs) and spontaneously transient outward currents (STOCs) well described in this cell type. STOCs are believed to represent activation of calcium activated potassium (KCa) channels while STICs are believed to represent activation of CaCCs. TEA-Cl was included in the buffer to enhance STICs which were then recorded during the addition of 100 μM niflumic acid. When recording TEA- and niflumic acid-induced responses on membrane potential (ΔmV), the intracellular solutions contained (in mM) 140 KCl, 5 MgATP, 5 EGTA, 1 MgCl2, 10 HEPES, and 5 CaCl2 (pH 7.2), and the extracellular solutions consisted of (in mM) 134 NaCl, 5 MgATP, 5 EGTA, 1 MgCl2, 10 HEPES, and 5 CaCl2 (pH 7.2). All recordings were analyzed on Clampfit 8.0 software (Molecular Devices).

[3] = tested on: human airway smooth muscle cells; test: FLIPR membrane potentiometric dye assay (Example 21); format: cell-based
Method: Immortalized airway smooth muscle cell lines modified to stably express human telomerase reverse transcriptase were a kind gift from Dr. William Gerthoffer (University of Southern Alabama, Mobile, Ala.) prepared as described previously (Gosens et al., 2006) and grown in Dulbecco's Modified Eagle's Medium/F12 media (GIBCO, Grand Island, N.Y.), with 10% FBS and antibiotics.
Immortalized human airway smooth muscle cells were cultured on black-walled 96 well plates to 100% confluence, and were washed four times with warmed (37° C.) assay buffer of the following composition (in mM): NaCl 140, KCl 4.7, CaCl2 2.5, MgCl2 1.2, HEPES 11, D-glucose 10. A stock solution (100% dye) of FLIPR blue dye was prepared by reconstitution of 1 vial (125 mg) with 100 ml assay buffer. A 50% working stock was prepared by further diluting the reconstituted blue dye 1:1 with assay buffer and was used to load cells (90 μl/well) over 45 min at 37° C. in a humidified cell culture incubator (95% air/5% CO2). All reagents were dissolved in assay buffer. Fluorescence was measured with a Flex Station 3 (Molecular Devices) using an excitation wavelength of 530 nm, emission wavelength of 565 nm and a cutoff filter of 550 nm. Baseline fluorescence was measured every 2 seconds for 1 minute then for 2 minutes after injection of vehicle or compound of interest as indicated (using the Flexstation's 3 integrated injection capabilities).
Human airway smooth muscle cells were incubated with FLIPR membrane potentiometric dye to assess if the chloride channel blockers changed membrane potential at the cellular level. FLIPR fluorescence will increase with depolarization, and decrease with hyperpolarization. […] Therefore, chloride channel blockade, but not NKCC blockade, hyperpolarized human airway smooth muscle cells.

[4] = tested on: guinea pig tracheal rings; test: Ex vivo airway smooth muscle force, prevention or relaxation of a contraction (Example 5); details: solo therapy; vs vehicle
Method: The chloride channel blocker NPPB and the chloride transporter blocker bumetanide were evaluated for their ability to prevent an initial contraction (n=5) (FIG. 23A) or to relax an existing contraction (n=6) (FIG. 23B).
As a proof of concept for chloride channel blockade in general, another chloride channel blocker, 5-nitro-2-(3-phenylpropylamino)-benzoic acid (NPPB) was used in an ex vivo guinea pig airway smooth muscle model.

[5] = tested on: guinea pig tracheal rings; test: Relaxation of potassium gluconate contraction in guinea pig tracheal rings; details: 100 μM; 80 mM potassium gluconate
Method: (§1) Animal protocols were approved by the Columbia University Animal Care and Use Committee. Male Hartley guinea pigs weighing approximately 400 g were anesthetized with intraperitoneal injection of sodium pentobarbital (100 mg/kg). Trachea were removed and transferred to ice cold Krebs-Henseleit (KH) buffer of the following composition (in mM): NaCl 118, KCl 5.6, CaCl2 0.5, MgSO4 0.24, NaH2PO4 1.3, NaHCO3 25, glucose 5.6, pH 7.4. Epithelial-denuded tracheal rings were prepared using a dissecting microscope. Epithelium was removed by gently passing cotton fibers through the lumen of the tracheal rings. The rings were suspended in 4 mL-water jacketed organ baths (37° C.: Radnoti Glass Technology, Monrovia, Calif.) and connected to a Grass FT03 force transducer (Grass Telefactor, West Warwick, R.I.) using silk sutures. The transducers were coupled to the computer with BioPac hardware and data was collected using Acqknowledge 7.3.3 software (BioPac Systems, Goleta, Calif.). KH buffer was bubbled with a gas mixture of 95% oxygen and 5% carbon dioxide and buffer was exchanged every 15 minutes for 1 hour during equilibration of tracheal rings at 1 g resting tension. […].
Many chloride channel blockers are known to also stimulate potassium channels (Greenwood et al., 2007). Thus, we performed additional studies in the presence of a large extracellular concentration of potassium to ensure that our findings of compound 1 or 13 inhibiting a TEA-induced depolarizing contraction were not due to these compounds opening a potassium channel.

rat lung slices = test: Airway lumen area in peripheral small airways of rat lung slices; details: contractile agonists
Method: The measurement of airway contraction of a luminal area of small lung airways using the ex vivo rat lung slice method was performed as described (Perez-Zoghbi et al., 2007). The trachea was cannulated with an intravenous catheter, and after the chest cavity was opened, the collapsed lungs were reinflated with 1.3±0.1 ml of 2% agarose (low-gelling temperature) in Sigma-Hanks' Balanced Salt solution (sHBSS), followed by the injection of 0.2±0.1 of air to flush the agarose-sHBSS out of the airways and into the distal alveolar space. Subsequently, a warm (37° C.) solution of gelatin (type A, porcine skin, 300 bloom, 6% in sHBSS) was perfused through the intrapulmonary blood vessels via the pulmonary artery by injecting about 0.3 ml into the right ventricle. The warm agar and gelatin were gelled with cold sHBSS. A single lung lobe was removed and cut into serial sections of about 130 μm thick with a vibratome at about 4° C., starting at the lung periphery. Slices were maintained in DMEM (Invitrogen) at 37° C. and 10% CO2 for up to 3 days. At 37° C., the gelatin in the blood vessel lumen dissolved, leaving the blood vessel lumen empty. Lung slices were mounted in a custom-made perfusion chamber and held in place with a small sheet of nylon mesh. A second cover glass edged with silicone grease was placed over the lung slice. Perfusion of the lung slice was performed using a gravity-fed perfusion system. The volume of the chamber was about 100 μl with a perfusion rate of about 800 μl/min. […] Digital images were recorded in time lapse (30 frames/min). The area of the bronchiole and arteriole lumen was calculated, from each image, by pixel summing using custom-written software. Experiments were performed at room temperature.

RhoA = details: 10 mM TEA-acetate, 2 minutes
Method: FIG. 8 is a bar graph showing RhoA activation in human airway smooth muscle cells.
Measurement of activated rhoA in cultured human airway smooth muscle cells were conducted as follows. […] Reaction was stopped by solubilizing cells in buffer. Following clearance of non-solubilized cell material, the solubilized cells were reacted with Rhotekin bound to beads, which isolated activated RhoA from total RhoA. Fractions were then analyzed on a commercially available ELISA plate that quantitates activated versus total RhoA (Cytoskeleton, Inc.)

[6] = tested on: human airway smooth muscle; test: Relaxation of acetylcholine contraction in human airway smooth muscle strips; details: 100 μM alone; EC50 acetylcholine
Method: Studies using de-identified human tissue were reviewed by the Columbia University Institutional Review Board and deemed not human subjects research. Tissues were obtained from healthy, normal organ donor discarded surgical waste subsequent to lung transplant surgery. Tissues were collected after transplant and placed in DMEM media (GIBCO) and bubbled overnight in 5% carbon dioxide and 95% oxygen at 4° C. The following morning, the smooth muscle tissue was carefully dissected under a dissecting microscope and the epithelium removed. The strips were anchored in the organ bath as described above using KH buffer of the same composition. The strips were allowed to equilibrate for 1 hour with buffer exchanges every 15 minutes and were treated with 10^−6 M tetrodotoxin, 10^−5 M pyrilamine, and 10^−5
M MK571. Strips were contracted with an EC50 dose of acetylcholine (Ach)
This experiment was then repeated with human airway smooth muscle to investigate clinical relevance as a model of bronchospasm in humans.

[7] = tested on: Ca^2+-activated chloride channel; test: Patch-clamp analysis of spontaneous transient inward currents (STICs)
[8] = tested on: guinea pig tracheal rings; test: Relaxation of TEA contraction in guinea pig tracheal rings (Example 16, library screen); details: 10 mM TEA
Method: as §1

[9] = tested on: guinea pig tracheal rings; test: Potentiation of isoproterenol relaxation of acetylcholine contraction, guinea pig tracheal rings; details: 50 μM compound 13
Method: as §1
Therefore, we tested whether the chloride channel blockers or modulation of chloride flux could be used in combination with β-agonists to potentiate their effects. […]. Therefore, a combination of treatment with compound 13 and bumetanide potentiated the relaxation effect of isoproterenol.

[10] = tested on: guinea pig tracheal rings; test: Relaxation of the maintenance phase of a pre-established acetylcholine contraction, guinea pig tracheal rings; details: 100 μM alone; pre-contracted with EC50 acetylcholine
Method: as §1
Chloride channel blockers were then tested against the plateau phase of an established acetylcholine contraction. […]

[11] = 10 μM compound 13 and bradykinin, n=5
[12] = 10 μM compound 13 plus 30 μM bradykinin, n=5
[13] = compound 13 under basal conditions, n=9

Compound: O=C([O-])[C@H](O)[C@@H](O)[C@H](O)[C@H](O)CO.[K+] [K gluconate, potassium gluconate]
intracellular calcium (fluo4-AM fluorescence) [1]: increased calcium | membrane potential (current clamp, whole cell) ([2]; 60-75 mM potassium (K)-gluconate): depolarized the cell | membrane potential, continuous fluorescence recording (representative tracing) [3]: depolarizes

Compound: O=C(O)c1cc([N+](=O)[O-])ccc1NCCCc1ccccc1 [NPPB, 5-nitro-2-(3-phenylpropylamino)-benzoic acid]
relaxation of an existing contraction [4]: effective in relaxing an existing contraction | percent of potassium gluconate-induced contraction at 30 minutes [5]: 56.71%±10.6 and 56.7%±10.6

Compound: CC[N+](CC)(CC)CC.[Cl-] [TEA, tetraethylammonium chloride]
percent decrease in lumen area compared to rest (rat lung slices): significant decrease in lumen area | intracellular calcium (fluo4-AM fluorescence) ([1]; 10 mM TEA): does not increase intracellular Ca^2+ | membrane potential (current clamp, whole cell) ([2]; 10 mM TEA-Cl): depolarized the cell | RhoA activation (RhoA): activates rhoA

shift of the EC50 of isoproterenol [9]: 2.2 fold
Compound: O=C(O)c1cc(Cl)ccc1NCc1cccc2ccccc12 [compound 13, 5-chloro-2-(1-naphthylmethylamino)benzoic acid]
relaxation of acetylcholine contraction [6]: 52.5%±8.1 | amplitude of STICs ([7]; 10 μM compound 13 alone, n=9): 0.44±0.09 fold change with control normalized to 1 | frequency of STICs ([7]; 10 μM compound 13 alone, n=9): 0.4±0.1 fold change with control normalized to 1 | amplitude of STICs compared to control [7, 11]: 46% | frequency of STICs compared to control [7, 11]: 40% | amplitude of STICs [7, 12]: 0.46±0.13 fold change with control normalized to 1 | frequency of STICs [7, 12]: 0.4±0.14 fold change with control normalized to 1 | amplitude of STICs [7, 13]: 44 % of control | frequency of STICs [7, 13]: 40 % of control | percent of the TEA-induced contraction remaining at 15 minutes ([8]; 100 μM): 61.0±10.1% | relaxed fraction of a TEA-induced contraction at 15 minutes after drug addition ([8]; 100 μM): 39.0% | relaxation of TEA-induced contraction (screen of 20-compound chloride channel blocker library) [8]: most potently relax | percent of potassium gluconate-induced contraction at 30 minutes [5]: 68.17%±4.9 and 68.2%±4.9 | change in relative fluorescent units (membrane potential, FLIPR) ([3]; 100 μM, n=12): −264.2+/−40 RFU | relaxation of established acetylcholine contraction [10]: 60.1%±5.7
